Converted amounts (≈) assume the structure as drawn. A value given as a limit tells only on which side of the number the result lay.

Our source for the MIC values is ChEMBL document CHEMBL1135008, “17S,20S-Methanofusidic acid, a new potent semi-synthetic fusidane antibiotic” (2002).

Type in all cases: functional
Assay [1] deals with Lactiplantibacillus plantarum. The experiment in a line: Compound was tested for its antibacterial activity against Lactobacillus plantarum ATCC 8014.
Another assay relates to Micrococcus luteus. Briefly: Compound was tested for its antibacterial activity against Micrococcus luteus ATCC 9341.
Assay [2] has as its system Streptococcus sp. Briefly: Compound was tested for its antibacterial activity against Streptococcus sp. EF 6.
Assay [3] deals with Staphylococcus epidermidis. Briefly: Compound was tested for its antibacterial activity against Staphylococcus epidermidis ATCC 12228.
Another assay has as its system Bacillus cereus. Briefly: Compound was tested for its antibacterial activity against Bacillus cereus ATCC 10876.
The subject of the next assay is Enterococcus faecium. The experiment in a line: Compound was tested for its antibacterial activity against Enterococcus faecium EI 119, penicillin resistant.
Assay [4] has as its system Geobacillus stearothermophilus. Briefly: Compound was tested for its antibacterial activity against Bacillus stearothermophilus KG 5.
The subject of assay [5] is Streptococcus sp. Briefly: Compound was tested for its antibacterial activity against Streptococcus sp. EG 14.
For a further assay, the system named is Clostridium perfringens. Briefly: Compound was tested for its antibacterial activity against Clostridium perfringens KT 13.
A further assay has as its system Cutibacterium acnes. Briefly: Compound was tested for its antibacterial activity against Propionibacterium acnes NCTC 737.
Another assay relates to Enterococcus faecalis. The experiment in a line: Compound was tested for its antibacterial activity against Enterococcus faecalis ATCC 10541.
The subject of another assay is Escherichia coli. The experiment in a line: Compound was tested for its antibacterial activity against Escherichia coli HA 44.
Assay [6] has as its system Staphylococcus aureus. Briefly: Compound was tested for its antibacterial activity against Staphylococcus aureus CJ 232 (MRSA).
The subject of another assay is Corynebacterium xerosis. The experiment in a line: Compound was tested for its antibacterial activity against Corynebacterium xerosis NCTC 9755.
The subject of assay [7] is Staphylococcus aureus. The experiment in a line: Compound was tested for its antibacterial activity against Staphylococcus aureus ATCC 2977.
The next assay has as its system Streptococcus pyogenes. Briefly: Compound was tested for its antibacterial activity against Streptococcus pyogenes EC.
For the next assay, the system named is Pseudomonas aeruginosa. Briefly: Compound was tested for its antibacterial activity against Pseudomonas aeruginosa ATCC 10145.
Assay [8] has as its system Staphylococcus epidermidis. The experiment in a line: Antimicrobial evaluation revealed potent activity against several Gram positive bacteria (Staphylococcus epidermidis ATCC 12228).

Usually MIC stands for the lowest concentration that inhibits growth of the organism. A higher MIC goes with a need for much substance. For `CC(=O)O[C@H]1C[C@@]2(C)C(C[C@@H](O)[C@H]3[C@@]4(C)CC[C@@H](O)[C@@H](C)[C@@H]4CC[C@@]32C)/C1=C(\CCC=C(C)C)C(=O)O` (some centres undefined), the MIC was determined as 4 µg/mL (≈ 7.74 µM) in assay [1]; 1 µg/mL (≈ 1.94 µM) in the assay on Micrococcus luteus; 4 µg/mL (≈ 7.74 µM) with Streptococcus sp. [2]; 0.001 µg/mL (≈ 0.00194 µM) in assay [3]; 4 µg/mL (≈ 7.74 µM) against Bacillus cereus; 0.02 µg/mL (≈ 0.0387 µM) against Enterococcus faecium. Also, the MIC in [4] was 0.03 µg/mL (≈ 0.0581 µM); against Streptococcus sp. [5], 16 µg/mL (≈ 31 µM); in the assay on Clostridium perfringens, 16 µg/mL (≈ 31 µM); with Cutibacterium acnes it was 0.02 µg/mL (≈ 0.0387 µM); with Enterococcus faecalis, 4 µg/mL (≈ 7.74 µM); in the assay with Escherichia coli, over 125 µg/mL. Besides, the MIC against Staphylococcus aureus [6] was 0.015 µg/mL (≈ 0.029 µM); in the assay with Corynebacterium xerosis, 0.04 µg/mL (≈ 0.0774 µM); against Staphylococcus aureus [7] it was 0.006 µg/mL (≈ 0.0116 µM); against Streptococcus pyogenes it was 4 µg/mL (≈ 7.74 µM); with Pseudomonas aeruginosa it was 1 µg/mL (≈ 1.94 µM).
For the molecule `CC(=O)O[C@H]1C[C@@]2(C)C(C[C@@H](O)[C@H]3[C@@]4(C)CC[C@@H](O)[C@@H](C)C4CC[C@@]32C)[C@]12C[C@]2(CCC=C(C)C)C(=O)O` (some centres undefined), the MIC stood at 63 µg/mL (≈ 119 µM) in assay [1]; 0.25 µg/mL (≈ 0.471 µM) in the assay on Micrococcus luteus; 16 µg/mL (≈ 30.1 µM) with Streptococcus sp. [2]; 1 µg/mL (≈ 1.88 µM) with Bacillus cereus; 0.02 µg/mL (≈ 0.0377 µM) with Enterococcus faecium; 0.03 µg/mL (≈ 0.0565 µM) in assay [4]. For the same molecule, the MIC was 63 µg/mL (≈ 119 µM) in the assay with Streptococcus sp. [5]; 0.001 µg/mL (≈ 0.00188 µM) in assay [8]; 16 µg/mL (≈ 30.1 µM) against Clostridium perfringens; 0.02 µg/mL (≈ 0.0377 µM) against Cutibacterium acnes; 16 µg/mL (≈ 30.1 µM) with Enterococcus faecalis; over 125 µg/mL in the assay with Escherichia coli. Further, the MIC against Staphylococcus aureus [6] worked out at 0.014 µg/mL (≈ 0.0264 µM); against Corynebacterium xerosis it was 0.04 µg/mL (≈ 0.0754 µM); with Staphylococcus aureus [7], 0.003 µg/mL (≈ 0.00565 µM); in the assay on Streptococcus pyogenes, 16 µg/mL (≈ 30.1 µM); against Pseudomonas aeruginosa, 1 µg/mL (≈ 1.88 µM).
